Source: publication PMC6112376, “Comprehensive Analyses and Prioritization of Tox21 10K Chemicals Affecting Mitochondrial Function by in-Depth Mechanistic Studies” (Environmental Health Perspectives, 2018)
Structures can show the parent of a compound that is named as a salt. Where two headings read alike, the source gives them in different places.

What was measured:
rat primary hepatocytes [1] = test system: rat primary hepatocytes
HepG2 cells [2] = settings: for IC50: read-out: MMP assays IC50 (µM) HepG2
rat primary hepatocytes [3] = experiment: MMP assay in rat primary hepatocytes; settings: for IC50: read-out: MMP assays IC50 (µM) Rat Hepatocytes
HepG2 cells [4] = settings: cited from earlier work
[5] = read-out: MMP assays IC50 (µM) qHTS-HepG2
[6] = read-out: MMP assays IC50 (µM), qHTS-HepG2

SMILES | MMP assays efficacy (%) Rat Hepatocytes (rat primary hepatocytes [1]) | MMP assays efficacy (%) HepG2 (HepG2 cells [2]) | IC50 (HepG2 cells [2]) [µM] | MMP assays IC50 (µM) Rat Hepatocytes (rat primary hepatocytes [3]) | MMP assays IC50 (µM) qHTS-HepG2 (HepG2 cells [4]) | MMP assays efficacy (%) qHTS-HepG2 (HepG2 cells [4]) | IC50 (rat primary hepatocytes [3]) [µM] | IC50 (HepG2 cells [4]; [5]) [µM] | MMP assays IC50 (µM) HepG2 (HepG2 cells [2]) | IC50 (HepG2 cells [4]; [6]) [µM] | IC50 (rat primary hepatocytes [3]; Rattus norvegicus, Hepatocyte) [µM]
Cl.Cl.Nc1ccc(-c2ccc(N)cc2)cc1 [Benzidine dihydrochloride] | inactive | -67% | 17.7 | inactive | inactive | inactive | – | – | – | – | –
Oc1cc2ccccc2c2ccccc12 [Compound 9-Phenanthrol] | -94±31% | -101% | 3.55 | – | – | -101±8% | 47.3 ± 10.7 | 1.22 ± 0.56 | – | – | –
CCCCCCCCCCn1cc[n+](CCCCCCCCCC)c1C.[Cl-] [1,3-Didecyl-2-methylimidazolium chloride] | -110±29% | -104% | 3.16 | – | – | -83±13% | 26.2 ± 3.35 | 3.86 ± 4.19 | – | – | –
CC1=C(/C=C/C(C)=C/C=C/C(C)=C/C(=O)Nc2ccc(O)cc2)C(C)(C)CCC1 | inactive | -92% | 4.89 | inactive | – | -100±0% | – | 3.4 ± 0.76 | – | – | –
Oc1ccc2ccccc2c1N=Nc1ccccc1 [C.I. Solvent yellow 14] | -86±4% | -110% | 15.8 | – | – | -69±8% | 17 ± 10.6 | 5.84 ± 2.06 | – | – | –
C[C@@H]1C/C=C/C=C/C=C/C=C/[C@H](O[C@@H]2O[C@H](C)[C@@H](O)[C@H](N)[C@@H]2O)C[C@@H]2O[C@](O)(C[C@@H](O)C[C@H]3O[C@@H]3/C=C/C(=O)O1)C[C@H](O)[C@H]2C(=O)O [Natamycin] | inactive | inactive | – | inactive | inactive | inactive | – | – | inactive | – | –
CS(=O)(=O)O.CS(=O)(=O)O.N=C(N)c1ccc(/C=C/c2ccc(C(=N)N)cc2O)cc1 | -71±16% | inactive | – | – | – | -57±17% | 13.6 ± 8.28 | – | inactive | 2.81 ± 0.9 | –
CC(=Cc1ccccc1)[N+](=O)[O-] [(2-Nitro-1-propenyl)benzene] | -107±47% | inactive | – | – | – | -105±10% | – | 38.6 ± 15.3 | inactive | – | 25.9 ± 8.35
Nc1nc(N)c(N)c(N)n1.O=S(=O)(O)O [tetra-Aminopyrimidine sulfate] | -55±32% | -87% | 25.1 | – | – | -117±30% | 42.1 ± 30.6 | – | – | 18.7 ± 11.4 | –
N=C(N)NN=C(/C=C/c1ccc([N+](=O)[O-])o1)/C=C/c1ccc([N+](=O)[O-])o1 [Nitrovin] | -89±11% | -118% | 5.48 | – | – | -94±2% | 16.4 ± 1.33 | – | – | 3.27 ± 0.57 | –
CCCCCCCCCCCCCC[P+](CCCCCC)(CCCCCC)CCCCCC.[Br-] [Trihexyltetradecylphosphonium bromide] | -89±37% | -95% | 0.45 | – | – | -96±9% | 18.8 ± 4.25 | – | – | 0.84 ± 0.24 | –
CCCC[P+](CCCC)(CCCC)CCCC.[Cl-] [Tetrabutylphosphonium chloride] | -108+36% | inactive | – | – | inactive | inactive | 15.3 ± 5 | – | inactive | – | –
CC(=O)O[Si](C)(OC(C)=O)OC(C)=O [Methylsilanetriyl triacetate] | inactive | inactive | – | inactive | – | -67±10% | – | – | inactive | 29.1 ± 16.4 | –
CC(C)c1ccc(O)c(C(C)C)c1 [2,4-Diisopropylphenol] | inactive | -115% | 35.5 | inactive | – | -107±10% | – | 17.2 ± 1.99 | – | – | –
CNC(=O)c1cc(Oc2ccc(NC(=O)Nc3ccc(Cl)c(C(F)(F)F)c3)cc2)ccn1 | -72±24% | -92% | 1.23 | – | – | – | 2.25 ± 0.63 | – | – | 0.96 ± 0.09 | –
Cc1cnc(NC(=O)C2=C(O)c3ccccc3S(=O)(=O)N2C)s1 [Meloxicam] | inactive | inactive | – | inactive | – | – | – | – | inactive | 14.5 | –
CN(C)c1ccc2nc3ccc(=[N+](C)C)cc-3sc2c1 [Methylene blue trihydrate] | -93±3% | -69% | 4.82 | – | – | -67±11% | – | – | – | 1.31 ± 0.79 | 7.29 ± 7.49
CCc1ccc(CCOc2ccc(CC3SC(=O)NC3=O)cc2)nc1 (stereo not shown) [Pioglitazone hydrochloride] | -69+30% | inactive | – | – | inactive | inactive | – | – | inactive | – | 8.9 ± 9.2
